System: prothrombin time (PT) of normal plasma NKP
Assay: Three wet-chemistry Owren PT methods (Simple Simon PT; 20, 10, 5 μL sample in 200 μL reagent) on normal plasma NKP with added anticoagulant
Assay type: biochemical
Experimental: Experimental work was performed with the commercially available ambient room temperature coagulation instrument, Simple Simon P T Zafena A B, Linköping, Sweden, with functions described in EP 1 636 595 B2. One instrument or reader was used for each PT-method. Alternatively, the same instrument could be used for all PT-methods.
The three instruments were used together standing next to one another on a laboratory bench in thermal equilibrium with the ambient room temperature of the laboratory.
The ambient room temperature in the laboratory where the work was done varied between 21° C. and 26° C.
The PT-reagent was the one delivered together with lot N223M of the Simple Simon PT product, a reagent of Owren-type that thus contains effective amounts of thromboplastin, fibrinogen and FV (the thromboplastin of rabbit brain origin and the fibrinogen and the FV of bovine blood plasma origin). Other Owren type reagents could also be used.
The reagent was in portions of 200 μL to which sample, citrated blood or citrated blood plasma, was added and mixed. The addition was by an end-to-end plastic capillary mounted at one end of a tubular body with a displacement mechanism in the other end, this to allow convenient mixing of sample and reagent. Such Mixxocaps with 10 μL capillaries are supplied with the Simple Simon PT product. To perform the experiments described, some Mixxocaps were fitted with 20 μL capillaries, or 5 μL capillaries instead of the 10 μL capillaries with which they were supplied by the manufacturer.
The ratios between the volume of blood or blood plasma to the volume of liquid reagent used in the experiments were 1:11, 1:21 and 1:41. Other ratios lying within the range of 1:5 and 1:100 or within the range of 1:2 and 1:200 could be used.
Anticoagulated normal plasma was the NKP product GHI-163 lot 10188, MediRox AB, Nyköping, Sweden.
It was further relevant that all three PT-methods were calibrated, according to the invention, to show INR 1.000 for unadulterated NKP, and INR 1.357 for the NKP 1:2. All primary INR values, the results that appeared on the instrument screens (one instrument or reader was used for each PT-method), were therefore transformed to the corrected/calibrated INRc by the formula A*INRexp(B) where a and b were selected to given NKP and NKP 1:2 their desired values, 1.000 and 1.357, respectively. The INR-value of the NKP 1:2 was calculated by the formula of Lindahl et al for the INR of corresponding to PT-activity of 50% (half of the 100% that equates to INR 1.000). Above the INR calibrated columns (INRc) there is an upper number and a lower number, these are the above mentioned A and B, respectively.
As deemed relevant the upper number is selected to make NKP 1:2 to show INRc 1.357.
Clinical levels of interest range from 50 to 1000 μg/L in blood plasma.
In the selected calibration INR 1.000 and INR 1.357 were assigned to NKP and NKP 1:2, respectively, which was the same relevant calibration as selected in Examples 1 and 3 above.

[1] = dabigatran 52 μg/L in NKP plasma
[2] = dabigatran 157 μg/L in NKP plasma
[3] = dabigatran 236 μg/L in NKP plasma
[4] = dabigatran 355 μg/L in NKP plasma
[5] = dabigatran 533 μg/L in NKP plasma
[6] = dabigatran 800 μg/L in NKP plasma
[7] = dabigatran 1000 μg/L in NKP plasma

## dabigatran
[1]
  INR 10 μL sample: 1.09
  INR 20 μL sample: 1.16
  INRc 5 μL sample: 1.01
  INRc 10 μL sample: 1.03
  INRc 20 μL sample: 1.16
  INRo: 0.98
  ΔINRc 10 μL − 5 μL: 0.03
  ΔINRc 20 μL − 5 μL: 0.15
[2]
  INR 10 μL sample: 1.19
  INR 20 μL sample: 1.31
  INRc 5 μL sample: 1.08
  INRc 10 μL sample: 1.14
  INRc 20 μL sample: 1.36
  INRo: 1.02
  ΔINRc 10 μL − 5 μL: 0.05
  ΔINRc 20 μL − 5 μL: 0.28
[3]
  INR 5 μL sample: 1.17
  INR 10 μL sample: 1.30
  INR 20 μL sample: 1.53
  INRc 5 μL sample: 1.12
  INRc 10 μL sample: 1.26
  INRc 20 μL sample: 1.67
  INRo: 0.98
  ΔINRc 10 μL − 5 μL: 0.14
  ΔINRc 20 μL − 5 μL: 0.55
[4]
  INR 5 μL sample: 1.28
  INR 10 μL sample: 1.44
  INR 20 μL sample: 1.82
  INRc 5 μL sample: 1.22
  INRc 10 μL sample: 1.41
  INRc 20 μL sample: 2.09
  INRo: 1.03
  ΔINRc 10 μL − 5 μL: 0.19
  ΔINRc 20 μL − 5 μL: 0.87
[5]
  INR 5 μL sample: 1.44
  INR 10 μL sample: 1.70
  INR 20 μL sample: 2.38
  INRc 5 μL sample: 1.37
  INRc 10 μL sample: 1.70
  INRc 20 μL sample: 2.98
  ΔINRc 10 μL − 5 μL: 0.33
  ΔINRc 20 μL − 5 μL: 1.61
[6]
  INR 5 μL sample: 1.81
  INR 10 μL sample: 2.50
  INR 20 μL sample: 4.22
  INRc 5 μL sample: 1.72
  INRc 10 μL sample: 2.62
  INRc 20 μL sample: 6.36
  INRo: 0.81
  ΔINRc 10 μL − 5 μL: 0.91
  ΔINRc 20 μL − 5 μL: 4.64
[7]
  INR 5 μL sample: 2.53
  INR 10 μL sample: 3.55
  INR 20 μL sample: 7.03
  INRc 5 μL sample: 2.39
  INRc 10 μL sample: 3.89
  INRc 20 μL sample: 12.47
  INRo: 0.88
  ΔINRc 10 μL − 5 μL: 1.51
  ΔINRc 20 μL − 5 μL: 10.08
Normal plasma NKP, linear part of the graph (FIG. 8, FIG. 2)
  content at which the INRc-difference (20 μL minus 5 μL) reaches 0.5: about 200 μg/L

Reference: patent US10613104B2, “Assay to determine anticoagulants in blood or blood plasma” (ZAFENA AB, priority 2014, dated 2020)
